Test results as given in patent publication US4868303A, “Bis-dioxopiperazine derivatives” (Zenyaku Kogyo Kabushiki Kaisha, priority 1986, dated 1989).

Tests used:
[1] = test system: P388 lymphocytic leukemia; assay: Growth inhibition of tumor cells of P388 lymphocytic leukemia in vitro; assay type: cell-based, mouse (CDF1); conditions: Mus musculus, 48 hours at 37° C., read-out: 50% Inhibitory concentration of cell growth (IC50)
Experimental: (I) Growth Inhibition of Tumor Cells of P388 Lymphocytic Leukemia in Vitro:
Tumor cells were collected aseptically with capillary tube from ascites in CDF1 female mice transplanted intraperitoneally with 1×10^6cells of P388 lymphocytic leukemia 5 days before. Cell suspension was prepared at 5×10^4 cells/0.5 ml in a RPMI1640 medium supplemented with 10% fetal calf serum, kanamycin (0.1 mg/ml) and 2-hydroxyethyldisulfide (0.01 mM). Each test sample was dissolved or suspended in the medium at a concentration of 1×10^-1 -1×10^-5 mM.
A test tube with Molton stopper loosely involving 0.5 ml each of the cell suspension and the sample suspension was kept for 48 hours at 37° C. in an incubator supplied with air containing 5% carbon dioxide. […] The cells harvested therefrom was counted by using of a Coulter Counter and the inhibition of cell growth was calculated by the following formula:
Growth Inhibition (%)=(1-T/C)×100
T: number of cells in the culture containing test sample
C: number of cells in the culture of control

V79 cells = assay: Inhibitory effect on colony formation of V79 cells in vitro; assay type: cell-based, Chinese hamster; conditions: Cricetulus griseus, 96 hours with sample, read-out: 90% inhibitory concentration (IC90)
Experimental: (II) Inhibitory effect on Colony Formation of V79 Cells in Vitro:
V79 cells established from Chinese hamster lung fibroblastoma were cultured routinely on plastic dishes (.phi. 60 mm) in RPMI 1640 medium supplemented with 10% fetal calf serum and kanamycin (0.1 mg/ml). Each confluent culture was then trypsinized by the addition of 1 ml of trypsin-EDTA solution (supplied by the firm GIBCO) for 5 minutes at 37° C. in an incubator supplied with humidified air containing 5% CO2.
Homogeneous suspension of V79 cells thus obtained was diluted to 100, 200 and 400 viable cells/ml with the medium, and 1 ml each of them was transferred to other plastic dishes (.phi. 60 mm) containing 1.85 ml of the medium, and diluted to 100, 200 and 400 viable cells/dish.
Each test sample was dissolved in DMSO at the concentration of 20 mM and diluted with the medium to the final concentration of 2×10^-3 -2×10^-10 mM.
Each test dish was kept for 24 hours at 37° C. in an incubator supplied with humidified air containing 5% CO2, and was further cultured for 96 hours after 150 μl of the sample solution was added thereto.
The cells were gently washed once with Mg- and Ca-free phosphate-buffered saline [PBS(-)] and fixed with 1 ml of 3.5% HCHO-PBS(-) solution for 2 hours, then stained with a crystal violet ethanol solution.
The 90% inhibitory concentration (IC90) was calculated by comparing the number of visible colonies on the sample dish with that on the control dish.

Acute toxicity (LD50) = conditions: mouse, in vivo, ip; intraperitoneal, suspended in saline with 1% HPC, observed 14 days
Experimental: The acute toxicity of the compounds of the present invention was examined by the following test.
The test group to which the compound of the present invention was administered consisted of five mice. Six weeks old male mice (ddY, 30±2 g of body weight) were employed as test animals.

[2] = test system: P388 lymphocytic leukemia; assay: Increase in life span on P388 lymphocytic leukemia tumor-transplanted mouse; assay type: in vivo, mouse (CDF1); conditions: P388, ip, 24 h, daily dose 2.3 mg/kg, intraperitoneal, day 1 and 5th day after transplantation, read-out: Rate of increase in life span (ILS)
Experimental: (III) Increase in Life Span on P388 Lymphocytic Leukemia Tumor-transplantedMouse:
The treated group to which the test sample was administered consisted of seven mice, while the control group consisted of ten mice. Six weeks old male mice (CDF1, 25±2 g of body weight) were employed as host animals.
Tumor cells (1.0×10^6) of P388 lymphocytic leukemia were transplanted intraperitoneally into each mouse. The treatment was effected one day after the transplantation and on 5th day by administering prescribed dose of each test sample intraperitoneally to the mice.
Antitumor activity of the test sample was evaluated by the rate of increase in life span (ILS) which was calculated with the following formula.
T': median survival time of treated mice
C': median survival time of control mice

Compound `Cc1cccc(C(=O)OCN2C(=O)CN([C@@H](C)[C@@H](C)N3CC(=O)NC(=O)C3)CC2=O)c1` (relative stereo) [Sample 14, erythro-2-[4-(3-toluoyloxmethyl)-3,5-dioxopiperazin-1-yl]-3-(3,5-dioxopiperazine-1-yl)butane] has an IC50 [1] of 13 nM, an IC90 (V79 cells) of 0.051 nM and an LD50 at 336 h (Acute toxicity (LD50)) of 6.7 to 10 mg/kg. It also gave an ILS at 2.3 mg/kg [2] of 199%.
